The results in this text go back to US6689808B2, “Substituted phthalides, a process for their preparations and pharmaceutical compositions containing them” (Les Laboratoires Servier, priority 2000, dated 2004).

For the compound `CCCCCCCCC1OC(=O)c2cc(N)ccc21` (stereo not drawn) [Example 6, 6-Amino-3-octyl-phthalide], the melting point (as a rule, the temperature, or range, at which the solid turns liquid) lay within 124 to 125 °C.
The result for `CCCCCCCCC1OC(=O)c2cc(NC(C)=O)ccc21` (stereo not drawn) [Example 9, 6-Acetamido-3-octyl-phthalide] reads 133 to 134 °C.
The result for `CCC1(CC)OC(=O)c2cc(N)ccc21` [Example 25, 6-Amino-3,3-diethyl-phthalide] reads 153 to 154 °C.
In turn, `CCCCC1OC(=O)c2cc(NC(N)=S)ccc21` (stereo not drawn) [Example 21, 3-Butyl-6-thioureido-phthalide] showed a melting point of 183 to 185 °C.
The result for `CCC1(CC)OC(=O)c2cc([N+](=O)[O-])ccc21` [Example 24, 3,3-Diethyl-6-nitro-phthalide] reads 98.5 to 100 °C; that for `CCCCCCC1OC(=O)c2cc(NC(C)=O)ccc21` (stereo not drawn) [Example 8, 6-Acetamido-3-hexyl-phthalide], 135 to 137 °C.
